Data published in article PMC12526720, “Hydralazine inhibits cysteamine dioxygenase to treat preeclampsia and senesce glioblastoma” (Science Advances, 2024).
Where a name gives a salt, the structure may show the parent alone.

Legend:
[1] = target: T1, mouse ADO (Mus musculus, UniProt Q6PDY2); test: quantitative chemoproteomics in RAW […] and Neuro 2a cells, and in mouse heart and brain; assay type: cell-based
T1 construct: endogenous
T1 sequence (Q6PDY2 1-256): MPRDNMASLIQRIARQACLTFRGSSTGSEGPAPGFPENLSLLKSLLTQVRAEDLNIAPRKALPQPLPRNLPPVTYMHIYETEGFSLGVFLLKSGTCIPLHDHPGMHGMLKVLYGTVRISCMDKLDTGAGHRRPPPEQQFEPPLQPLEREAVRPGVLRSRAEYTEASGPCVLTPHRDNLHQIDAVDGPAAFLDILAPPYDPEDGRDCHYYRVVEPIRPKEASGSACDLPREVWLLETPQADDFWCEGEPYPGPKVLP

[2] = target: T2, 2-aminoethanethiol dioxygenase (ADO) (Homo sapiens, UniProt Q96SZ5); test: O2 consumption (oxygen electrode) with purified Fe(II)•ADO, global fit; EPR of Co(II)•ADO also supports binding; assay type: biochemical
T2 construct: WT hADO (NP_116193.2), His6 tag cleaved with TEV
T2 sequence (Q96SZ5 1-270): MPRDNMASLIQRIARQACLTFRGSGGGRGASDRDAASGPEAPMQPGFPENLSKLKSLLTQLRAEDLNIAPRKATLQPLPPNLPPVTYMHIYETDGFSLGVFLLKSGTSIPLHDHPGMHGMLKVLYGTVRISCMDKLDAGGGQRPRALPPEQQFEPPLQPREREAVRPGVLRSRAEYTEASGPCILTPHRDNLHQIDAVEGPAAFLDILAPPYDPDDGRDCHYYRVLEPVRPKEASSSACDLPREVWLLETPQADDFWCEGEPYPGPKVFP

With `C#CCOCc1ccc2c(NN)nncc2c1` [HYZyne, 1-hydrazineyl-6-((prop-2-yn-1-yloxy)methyl)phthalazine hydrochloride] as the molecule, how does the “quantitative chemoproteomics in RAW 264.7 and Neuro 2a cells, and in mouse heart” value [1] read?
The value was “mouse ADO was also identified as a primary, high-reactivity, and high-stoichiometry target of HYZyne in both mouse cell types”.

With `NNc1nncc2ccccc12` [HYZ, Hydralazine] as the molecule, how does the Ki [2] read?
The Ki was 2.48 ± 0.42 µM.
